System: H1299 cells
Assay: MTT assay, H1299
Type: cell-based, human
Settings: H1299 (high EGFR-expressing), 10 μM
Procedure: The cell lines MCF-7 and A431 were cultured in Dulbecco’s Modified Eagle’s Medium (DMEM, Gibco, USA), while HL-60, H1299, and A549 cells were maintained in RPMI-1640 medium (Gibco, USA). Both mediums were enriched with 10% fetal bovine serum and 1% penicillin/streptomycin. […] All cell cultures were incubated at 37°C in an atmosphere containing 5% CO2.
Cells in the exponential growth phase were seeded into 96-well plates and allowed to adhere overnight. Subsequently, they were treated in triplicate with various concentrations of the compounds (0, 1.56, 3.13, 6.25, 12.5, 25, 50, 100 µM), […]. After 24 h, 20 µL of Methyl-thiazolyldiphenyl-tetrazolium bromide (MTT, 5 mg/mL, Thermo Fisher Scientific) was added to each well and incubated for a minimum of 4 h. Following the incubation, the medium containing the compounds and MTT was removed from each well, and 200 µL of dimethyl sulfoxide (DMSO) was added. The plates were then shaken for 10 min at 37°C to dissolve the formazan crystals. The absorbance was measured using a microplate reader (BioTek Synergy 4) at a wavelength of 490 nm.

`COC(=O)C/C(C)=C/C(=O)O[C@@H]1C[C@@H](C)[C@H]2[C@@H](C=C[C@H](CC(C)C)[C@]2(C)C(=O)/C=C\O)[C@@H]1O` [Tandyukisin] was tested, and the cell lethality percentage was 60.3% ± 3.9%.

From paper PMC11094307, “Marine-derived EGFR inhibitors: novel compounds targeting breast cancer growth and drug resistance” (Frontiers in Pharmacology, 2024)
